Data from patent publication US20240350538A1, “Use of an arsenic compound for treating a short or long cytokine storm in various autoimmune/inflammatory diseases in humans or animals” (priority 2020, published 2024).

System: fresh human Peripheral Blood Mononuclear Cells (hPBMCs)
Experiment: Cytokine production (IFNα, IL-6, IL-1β) by hPBMCs in basal condition and after TLR-9 stimulation (ODN2216)
Assay type: cell-based
Details: TLR-9-stimulated hPBMCs, 24 h; PD0325901 1 μM + ATO 2.5 μM

## O=C(NOC[C@H](O)CO)c1ccc(F)c(F)c1Nc1ccc(I)cc1F [PD0325901]
  production of IFNα after inhibition by ATO: did not restore
